Laboratory results published in patent publication US7951789B2 (priority 2006, dated 2011).

Assays:
[1] = tested on: endogenous HBV polymerase activity; test: HBV drug susceptibility assay (EPA read-out); type: cell-based
Experimental: • a) Collagen-I coated cell culture plates were seeded with cells at a density of 0.25-0.5×10^6 cells per well in 2 ml of growth/selection media. • b) Drug stock solutions were made up freshly in 100% DMSO as 200× stocks. Seven 4-fold dilutions of test compound were prepared ranging from 2.5 μM to 0.0006 μM (final). Master drug dilutions were divided into 4 aliquots, and then stored at −20° C. until used. • c) One day after cells were seeded, drug treatments were initiated by adding 10 μl of drug dilution along with 2 ml of fresh growth/selection media. […] The no-drug control wells received 10 μl of DMSO in fresh media. • d) Cells were treated every-other-day with 2 ml of fresh drug combinations/medium for a total of 8 days. Cell lysates were then collected on day 10 as described below and endogenous polymerase assay were performed. Preparation of Nucleocapsid-Containing Lysates for Epa Analysis • a) Two days after the final drug treatment, cells were harvested. • b) Media was carefully aspirated and the cell monolayers were rinsed once with 1 ml of PBS. • c) 1 ml of lysis buffer (50 mM Tris-HCl pH 7.5/150 mM NaCl/5 mM MgCl2/0.2% NP-40) was added to each well. The detergent is required to strip the outer envelope from virions and to allow capture of the inner nucleocapsids. Plates were kept on ice for >30 min. • d) Lysed cells were transferred to 1.5 ml-microfuge tubes. • e) Lysates were clarified by spinning at room temperature for 5 min at 14,000 rpm. • f) Clarified lysates were transferred to fresh tubes and immediately frozen on dry-ice, then stored at −80° C. until endogenous polymerase assays can be performed as described below. Endogenous Polymerase Assay (EPA) of Cell Lysates • a) EPAs were performed essentially as described in Seifer, et al (1998). J. Virol. 72: 2765-2776. […] The detergent is required to enhance permeability of the nucleocapsids. • d) Following digestion with 1 mg/ml of Proteinase K for 1 hour at 37° C., endogenously ^33P-labeled HBV DNA was liberated via phenol/chloroform extraction. • e) The nucleic acids were then precipitated with one volume of 5 M NH4-acetate and 2.5 volumes 100% EtOH, and separated on a 1% native agarose gel in Tris-borate buffer. • f) Gels were blotted onto positively charged nylon membrane overnight at room temperature via capillary transfer in 0.4 N NaOH. • g) Dried membranes were exposed to a phosphoimager screen (GE Healthcare) overnight at room temperature, then scanned (Storm 860, GE Healthcare) and quantitated with ImageQuant software (GE Healthcare). • h) Dose-response curves were generated using XLfit 4.1 software. The mean effective drug concentrations that inhibit endogenous HBV polymerase activity by 50% were calculated from several independent experiments. Cytotoxicity Determination

[2] = tested on: HepG2 cells; test: In vitro cytotoxicity assay in HepG2 cells (MTS); type: cell-based; conditions: 9 days, collagen plates
Experimental: A standard in vitro cytotoxicity assay was performed in HepG2 cells. Cells were exposed to drug for 9 days. Cell viability was determined via MTS staining using a CellTiter 96 Aqueous One Solution cell proliferation assay according to the manufacturer's instructions. • a) HepG2 cells were seeded in 96-well tissue culture plates in 100 μl fresh growth media at 7×10^3 cells per well. • b) Drug stock solutions were made up in 100% DMSO as 400× stock solutions and stored at −20° C. until used. • c) Four hours after cells were plated the drug dilutions were prepared and then added to the cells. Cells received up to 100 μM of drug in a total of 200 μl of fresh growth media containing 0.25% DMSO. Control wells received growth media with 0.25% DMSO growth media. Plates were incubated at 37° C., 5% CO2. • d) Cells were treated every-other-day with fresh growth media and fresh drug dilutions for a total of 8 days as described above. • e) On day 9, cell viability of HepG2 cells was determined by adding 20 μl of MTS CellTiter 96 Aqueous One Solution.

[3] = tested on: HBV wt (HepG2); test: Anti-HBV activity in HBV-infected HepG2 cells; type: cell-based; conditions: N=3
Experimental: The compound of Example 1 (NM 204) (Hydroxy-tBuSATE N-benzylphosphoramidate derivative of L-ddA) (A550) was contacted with HBV-infected HepG2 cells. EC50 values were measured according to standard techniques.

[4] = tested on: HCV Conl subgenomic replicon (GS4.1 cells); test: HCV replicon assay (NS4A ELISA, HCV ELISA 2); type: cell-based; conditions: Hepatitis C virus; GS4.1 cells, 72 hours, NS4A ELISA; read-out: HCV ELISA 2 EC50
In short: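 Huh-7 GS4.1 replicon cells treated 72 h at 37° C. with ten 2-fold dilutions from 75 μM (or single 15 μM), 0.5% DMSO; NS4A measured by ELISA, absorbance 492 nm, replicon-free Huh-7 as negative control. EC50 by four-parameter sigmoidal fit. CC50 from same treatment by MTS-type Cell Titer 96 viability.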

[5] = Cytotoxicity evaluation in GS4.1 cells (Cell Titer 96 AQueous One Solution); type: cell-based; conditions: human, 72 hours

Row | Structure (SMILES) | SI ([1]; CC50/EC50, HBV Cell Assay (EPA Read-out)) | EC50 ([1]; HBV Cell Assay (EPA Read-out), collagen plates, read-out: Antiviral Activity (EC50 in μM)) [µM] | CC50 [2] [µM] | EC50 [3] [nM] | EC50 [4] [nM] | melting point [°C] | CC50 [5] [nM]
1 | Cc1cn([C@@H]2C[C@@H](O)[C@H](CO)O2)c(=O)[nH]c1=O [LdT] | >273 | 0.366 ± 0.056 | > 100 | 260 ± 48 |  |  | 
2 | CC(C)(CO)C(=O)SCCOP(=O)(NCc1ccccc1)OC[C@H]1O[C@@H](n2ccc(N)nc2=O)[C@]2(C)OC(=O)O[C@H]12 (stereo partly shown) [Example B302, Hydroxy-tBuSATE N-benzylphosphoramidate 2′,3′-cyclic carbonate Derivative of 2′-C-methylcytidine] |  |  |  |  | 1000 to 10000 | 100 to 102 | > 75000
